Results taken from article PMC6273488, “Synthesis and Biological Evaluation of Benzochromenopyrimidinones as Cholinesterase Inhibitors and Potent Antioxidant, Non-Hepatotoxic Agents for Alzheimer’s Disease” (Molecules, 2016).
Read-outs that look alike come from different tables or passages of the source.

Tests used:
[1] = target: T1, human recombinant AChE (hAChE) (Homo sapiens, UniProt P22303); assay: biochemical
T1 construct: purchased Sigma-Aldrich
Description: Ellman’s assay was followed to evaluate the anticholinesterasic potency of BCPOs using human recombinant AChE (Sigma-Aldrich). 500 U of hAChE were dissolved in 1 mL of a gelatine solution (1% in water) and diluted with demineralized water to give a stock solution of 5 U/mL. […] All assays were performed in 0.1 M phosphate buffer pH 8.0. The assayed compounds or blank (water) (25 µL) were incubated with the enzyme (20 µL) for 5 min at 37 °C in 765 µL of phosphate buffer prior to start the reaction. Then, 20 µL of DTNB and 20 µL of ATC were added. […] IC50 values were determined with GraphPad Prism 5. Each concentration was measured in triplicate. Data are expressed as mean ± SEM.

in vitro [2] = format: cell-based; settings: human, HepG2 cells, 24 h, MTT, read-out: In vitro toxicity (% cell viability); for viability at 24 h, 1 µM: HepG2, 1 µM; for viability at 24 h, 3 µM: HepG2, 3 µM; for viability at 24 h, 10 µM: HepG2, 10 µM; for viability at 24 h, 30 µM: HepG2, 30 µM; for viability at 24 h, 100 µM: HepG2, 100 µM; for viability at 24 h, 300 µM: HepG2, 300 µM; for viability at 24 h, 1 mM: HepG2, 1 mM
Description: (§1) A prerequisite for any effective lead drug is to keep its cytotoxicity at the lowest possible level. In this regard, we submitted the four most promising compounds (3Ab, 3Bb, 3Cb and 3Ba) to an in vitro toxicologic evaluation (MTT assay) using human hepatocellular carcinoma cell line (HepG2) which represents a good probe to evaluate hepatotoxic effects. […].
(§2) HepG2 cells were purchased from American Type Culture Collection. The cells were cultured in Eagle’s Minimum Essential Medium (Ozyme, France) supplemented with 10% fetal bovine serum, 1X non-essential amino acids, 100 units/mL penicillin and […] streptomycin (Dutscher, Brumath, France). Cultures were kept under a CO2/air (5%/95%) humidified atmosphere at 37 °C. Prior to the experiment, cells were seeded in 96-well culture plates at a density of 0.1 × 10^6 cells per well. After 24 h of incubation, the culture medium was refreshed and 100 µL of the test compounds or DMSO (0.1%) were added. […] For the MTT assay, after 24 h of treatment, cells were incubated with 50 µL MTT (0.5 mg/mL, Sigma Aldrich, city, France) at 37 °C for 2 h. Plates were centrifuged, MTT was removed and 100 µL DMSO was distributed per well. The absorbance at 570 nm was measured using microplate reader (brand). Cell viability was expressed as percentage of cell viability compared to controls (DMSO, 0.1%).

HepG2 cells = assay: in vitro; format: cell-based; settings: HepG2, MTT, concentrations up to 1000 μM
Description: as §1, §2

in vitro [3] = settings: for Papp at 100 µM: PAMPA, pH 7.4; for BBB Penetration Estimation CNS (+/−): PAMPA-BBB class
Description: Penetration across the BBB is an essential property for compounds targeting the CNS. […] The filter membrane of the donor plate was coated with PBL (Polar Brain Lipid, Avanti, AL, USA) in dodecane (4 µL of 20 mg/mL PBL in dodecane) and the acceptor well was filled with 300 µL of PBS pH 7.4 buffer ([…]). Tested compounds were dissolved first in DMSO and that diluted with PBS pH 7.4 to reach the final concentration 100 µM in the donor well. […] 300 µL of the donor solution was added to the donor wells ([…]) and the donor filter plate was carefully put on the acceptor plate so that coated membrane was “in touch” with both donor solution and acceptor buffer. Test compound diffused from the donor well through the lipid membrane (Area = 0.28 cm^2) to the acceptor well. The concentration of the drug in both donor and the acceptor wells was assessed after 3, 4, 5 and 6 h of incubation in quadruplicate using the UV plate reader Synergy HT (Biotek, Winooski, VT, USA) at the maximum absorption wavelength of each compound.

[4] = target: T2, Recombinant human Aβ1–42 peptide (Homo sapiens, UniProt P05067); assay: Inhibition of Aβ1-42 aggregation (Thioflavin-T fluorometric assay); format: biochemical; settings: for inhibition at 10 µM: 10 µM compound and 1.5 µM Aβ1-42, mean ± standard deviation of two independent experiments
T2 construct: Recombinant human 1,1,1,3,3,3-hexafluoro-2-propanol pretreated Aβ1–42 peptide; purchased Merck Millipore
T2 sequence (P05067 672-713): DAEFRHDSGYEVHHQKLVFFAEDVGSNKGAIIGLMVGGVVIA
Description: 2. Thioflavin-T (ThT) Fluorometric Assay
Recombinant human 1,1,1,3,3,3-hexafluoro-2-propanol pretreated Aβ1–42 peptide (Merck Millipore, Darmstadt, Germany) was dissolved in DMSO to give 75 µM stock solution. The stock solution was further diluted in HEPES buffered solu tion (150 mM HEPES, pH 7.4, 150 mM NaCl), to 7.5 µM. Aβ1–42 solution was then added to the test compounds in black-walled 96-well plate, and diluted with ThT solution (final concentration of ThT was 10 µM). Final mixture contained 1.5 µM Aβ1–42, 10 µM of test compounds, and 3% DMSO. ThT fluorescence was measured every 5 min (λex = 440 nm, λem = 490 nm), with the medium continuously shaking between measurements using a 96-well microplate reader (Synergy™ H4, BioTek Instruments, Inc., Winooski, VT, USA). The fluorescence intensities at the plateau reached after 24 h in the absence and presence of the test compound were averaged, and the average fluorescence of the corresponding wells at t = 15 min was subtracted. The Aβ1–42 aggregation inhibitory potency is expressed as the percentage inhibition (% inh = (1 − Fi/F0) × 100%), where Fi is the increase in fluorescence of Aβ1–42 treated with the test compound, and F0 is the increase in fluorescence of Aβ1–42 alone.
1. LeVine, H. Thioflavine T interaction with synthetic Alzheimer’s disease beta-amyloid peptides:
Detection of amyloid aggregation in solution. Protein Sci. Publ. Protein Soc. 1993, 2, 404–410.

T1 sequence (P22303 32-614): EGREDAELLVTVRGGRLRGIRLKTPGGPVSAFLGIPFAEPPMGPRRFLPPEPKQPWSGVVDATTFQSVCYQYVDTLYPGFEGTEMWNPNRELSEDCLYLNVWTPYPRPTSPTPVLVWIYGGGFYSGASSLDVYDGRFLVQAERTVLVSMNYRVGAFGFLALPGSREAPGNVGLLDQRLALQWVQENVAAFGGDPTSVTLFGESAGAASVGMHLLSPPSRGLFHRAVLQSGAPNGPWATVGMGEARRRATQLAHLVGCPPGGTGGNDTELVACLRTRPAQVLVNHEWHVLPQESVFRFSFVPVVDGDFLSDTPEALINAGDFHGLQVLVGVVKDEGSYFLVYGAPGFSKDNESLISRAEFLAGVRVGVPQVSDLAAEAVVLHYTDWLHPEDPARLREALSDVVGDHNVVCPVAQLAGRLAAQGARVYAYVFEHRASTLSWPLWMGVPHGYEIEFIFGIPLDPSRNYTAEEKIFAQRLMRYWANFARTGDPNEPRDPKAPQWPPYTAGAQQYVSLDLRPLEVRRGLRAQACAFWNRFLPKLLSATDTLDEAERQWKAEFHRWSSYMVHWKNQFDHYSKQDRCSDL

Row | Structure (SMILES) | IC50 ([1]; mean ± SEM) [nM] | viability at 24 h, 1 µM (in vitro [2]) [%] | viability at 24 h, 3 µM (in vitro [2]) [%] | viability at 24 h, 10 µM (in vitro [2]) [%] | viability at 24 h, 30 µM (in vitro [2]) [%] | viability at 24 h, 100 µM (in vitro [2]) [%] | viability at 24 h, 300 µM (in vitro [2]) [%] | viability at 24 h, 1 mM (in vitro [2]) [%] | hepatotoxicity on HepG2 cells (in words) (HepG2 cells) | Papp at 100 µM (in vitro [3]) [×10⁻⁶ cm/s] | BBB Penetration Estimation CNS (+/−) (in vitro [3]) | inhibition at 10 µM [4] [%] | Aβ1–42 aggregation inhibition (in words) ([4]; 10 µM compound) | IC50 [1] [nM]
1 | COc1cccc(C2c3c(nc4n(c3=O)CCC4)Oc3ccc4ccccc4c32)c1 (stereo not drawn) [3Ba, 14-(3′Methoxyphenyl)-10,11-dihydro-14H-benzo[5,6]chromeno[2,3-d]pyrrolo[1,2-a]pyrimidin-13(9H)-one] | 1530 ± 25 | 109 ± 2 | 108 ± 4.8 | 106 ± 3.5 | 99.2 ± 4.2 | 97 ± 5.4 | 108 ± 2.8 | 120 ± 6.8 | non-hepatotoxic | 4.6 ± 0.77 | CNS (+) (‘CNS (+)’ (high BBB permeability predicted); Pe (10^−6 cm·s^−1) > 4.0) | < 10 | – | –
2 | O=c1c2c(nc3n1CCCC3)Oc1ccc3ccccc3c1C2c1ccccc1 (stereo not drawn) [3Ab, 15-Phenyl-10,11,12,15-tetrahydro-9H-benzo[5,6]chromeno[2,3-d]pyrido[1,2-a]pyrimidin-14-one] | 3660 ± 59 | 99.3 ± 4 | 95.3 ± 2.3 | 98.5 ± 2.5 | 91.5 ± 4.5 | 101 ± 3.1 | 110 ± 5.5 | 110 ± 4.4 | non-hepatotoxic | 7.2 ± 0.6 | CNS (+) (‘CNS (+)’ (high BBB permeability predicted); Pe (10^−6 cm·s^−1) > 4.0) | 13.6 ± 2.1 | weak inhibition power | –
3 | COc1cccc(C2c3c(nc4n(c3=O)CCCC4)Oc3ccc4ccccc4c32)c1 (stereo not drawn) [3Bb, 15-(3′-Methoxyphenyl)-10,11,12,15-tetrahydro-9H-benzo[5,6]chromeno[2,3-d]pyrido[1,2-a]pyrimidin-14-one] | 1280 ± 32 | 108 ± 2.4 | 111 ± 8.7 | 105 ± 4.2 | 104 ± 5 | 112 ± 2.3 | 118 ± 7.3 | 128 ± 5 | non-hepatotoxic | 3.6 ± 0.57 | CNS (+/−) (‘CNS (+/−) (BBB permeability uncertain); Pe (10^−6 cm·s^−1) from 4.0 to 2.0) | < 10 | – | 1280 ± 30
4 | Cc1ccc(C2c3c(nc4n(c3=O)CCCC4)Oc3ccc4ccccc4c32)cc1 (stereo not drawn) [3Cb, 15-(4′-Methylphenyl)-10,11,12,15-tetrahydro-9H-benzo[5,6]chromeno[2,3-d]pyrido[1,2-a]pyrimidin-14-one] | 1590 ± 24 | 106 ± 7 | 103 ± 10.8 | 110 ± 9.1 | 113 ± 5.8 | 103 ± 5.7 | 113 ± 5.2 | 110 ± 8 | non-hepatotoxic | – | – | < 10 | – | –
